Test results as given in patent US9119879B2, “Oral care compositions comprising a quinone and a further antimicrobial agent” (Colgate-Palmolive Company, priority 2010, dated 2015).

Key:
[1] = test system: A. viscosus biofilm; assay: Single species A. viscosus biofilm assay (Biofilm Eradication Concentration, BEC50); assay type: cell-based; conditions: for BEC50 of Active + 50 ppm TBHQ: active combined with 50 ppm TBHQ; for BEC50 of Active Alone: lowest concentration with greater than 50% reduction in biofilm biomass relative to control, TBHQ tested at 50 ppm
Experimental: TBHQ and a series of actives were tested in single species of A. viscosus biofilm assay.

[2] = test system: A. viscosus; assay: Minimum inhibitory concentration (MIC) of TBHQ; assay type: cell-based
[3] = test system: P. gingivalis; assay: Minimum inhibitory concentration (MIC) of TBHQ; assay type: cell-based
[4] = test system: F. nucleatum; assay: Minimum inhibitory concentration (MIC) of TBHQ; assay type: cell-based
[5] = test system: common pathogens; assay: Antimicrobial activity relative to known antimicrobial agents; assay type: cell-based
[6] = test system: PGE2; assay: Anti-inflammatory efficacy in cells triggered by Heat Killed P. gingivalis (HKPG): PGE2 level; assay type: cell-based, human
Experimental: (§1) The anti-inflammatory efficacy of TBHQ in neat solution against several inflammation cytokines was evaluated. Human fibroblast (HEPM) cells or human macrophage (U937) cells were used in these tests. Inflammation was triggered by Heat Killed P. gingivalis (HKPG). TBHQ at various doses was co-incubated with cells treated with HKPG, and the levels of inflammatory markers were observed.

[7] = test system: IL-1b; assay: Anti-inflammatory efficacy in cells triggered by HKPG: IL-1b level; assay type: cell-based, human
Experimental: as §1

[8] = test system: IL-6; assay: Anti-inflammatory efficacy in cells triggered by HKPG: IL-6 level; assay type: cell-based, human
Experimental: as §1

[9] = test system: TNF-α; assay: Anti-inflammatory efficacy in cells triggered by HKPG: TNF-α level; assay type: cell-based, human
Experimental: as §1

[10] = TBHQ 10 ppm, HKPG-treated cells
[11] = TBHQ 100 ppm, HKPG-treated cells

Which results are given for `[Cl][Sn][Cl]` [Stannous chloride]?
BEC50 of Active + 50 ppm TBHQ [1]: 39 ppm; BEC50 of Active Alone [1]: 156.3 ppm

For `CC(C)(C)c1cc(O)ccc1O` [TBHQ, 2-t-butyl-p-hydroquinone], which MIC [2] is on record?
The MIC was 62.5 ppm.

What about the MIC [3] of the same compound?
Its MIC is 62.5 ppm.

And the MIC [4]?
Its MIC is 62.5 ppm.

And the “antimicrobial activity, times lower than known antimicrobial agent” value ([5]; relative to cetylpyridinium chloride (CPC))?
The value was 60 times.

What about the “antimicrobial activity, times lower than known antimicrobial agent” value ([5]; relative to triclosan) of the same compound?
Its value is 20 times.

And the “reduction in biofilm biomass” value ([1]; TBHQ alone at 12.5 ppm)?
The value was at most 50%.

And the “reduction in biofilm biomass” value ([1]; TBHQ alone at 50 ppm)?
The value was at most 50%.

And the BEC50 ([1]; Table 3, TBHQ at 12.5 ppm, alone or with zinc oxide slurry)?
The BEC50 was “Not measurable”.

And the “BEC50 of Active Alone” value [1]?
The value was “Not measurable”.

And the PGE2 level ([6]; TBHQ 0.9 ppm, HKPG-treated cells)?
Its PGE2 level is 1323 pg/mL.

And the PGE2 level ([6]; TBHQ 1.8 ppm, HKPG-treated cells)?
Its PGE2 level is 1378 pg/mL.

What about the PGE2 level ([6]; TBHQ 3.9 ppm, HKPG-treated cells) of the same compound?
The PGE2 level was 1327 pg/mL.

What about the PGE2 level ([6]; TBHQ 7.8 ppm, HKPG-treated cells) of the same compound?
Its PGE2 level is 1563 pg/mL.

And the PGE2 level ([6]; TBHQ 15.6 ppm, HKPG-treated cells)?
Its PGE2 level is 1249 pg/mL.

And the PGE2 level ([6]; TBHQ 31.2 ppm, HKPG-treated cells)?
The PGE2 level was 1124 pg/mL.

And the PGE2 level ([6]; TBHQ 62.5 ppm, co-incubated with HKPG-treated cells (HKPG alone 1743, untreated 1579))?
Its PGE2 level is 764 pg/mL.

And the IL-1b ([7]; TBHQ 1 ppm, HKPG-treated cells (HKPG alone 85, untreated 63))?
Its IL-1b is 88 pg/mL.

And the IL-1b [7, 10]?
The IL-1b was 55 pg/mL.

What about the IL-1b [7, 11] of the same compound?
The IL-1b was 29 pg/mL.

And the IL-6 ([8]; TBHQ 1 ppm, HKPG-treated cells (HKPG alone 1753, untreated 42))?
Its IL-6 is 405 pg/mL.

And the IL-6 [8, 10]?
The IL-6 was 100 pg/mL.

And the IL-6 [8, 11]?
The IL-6 was 23 pg/mL.

And the TNF-α ([9]; TBHQ 1 ppm, HKPG-treated cells (HKPG alone 194, untreated 15))?
The TNF-α was 198 pg/mL.

What about the TNF-α [9, 10] of the same compound?
Its TNF-α is 68 pg/mL.

And the TNF-α [9, 11]?
The TNF-α was 7 pg/mL.

`COc1cc(CCC(=O)CC(=O)CCc2ccc(O)c(OC)c2)ccc1O` [Tetra-hydrocurcumin] was tested. Which “BEC50 of Active + 50 ppm TBHQ” value [1] did it give?
Its value is 1.22 ppm.

And the “BEC50 of Active Alone” value [1]?
The value was over 2500 ppm.

With `Oc1cc(Cl)ccc1Oc1ccc(Cl)cc1Cl` [Triclosan, reference compound] as the compound, how does the “BEC50 of Active + 50 ppm TBHQ” value [1] read?
Its value is under 0.03 ppm.

What about the “BEC50 of Active Alone” value [1] of the same compound?
Its value is 0.49 ppm.

For `O=C([O-])CC(O)(CC(=O)[O-])C(=O)[O-].O=C([O-])CC(O)(CC(=O)[O-])C(=O)[O-].[Zn+2].[Zn+2].[Zn+2]` [Zinc Citrate], which “BEC50 of Active + 50 ppm TBHQ” value [1] is on record?
Its value is 19.5 ppm.

What about the “BEC50 of Active Alone” value [1] of the same compound?
Its value is 78.1 ppm.
